Measurements published in ChEMBL document CHEMBL1158770, “Cladionol A, a polyketide glycoside from marine-derived fungus Gliocladium species” (J Nat Prod, 2005).
≈ marks a conversion by molar mass, not a printed value.

What was measured:
KB = assay: Cytotoxicity against human KB cells; format: functional, cell-based
L1210 = assay: Cytotoxicity against mouse L1210 cells; format: functional, cell-based

## CCC(C)CC(C)CC(C)C(O[C@@H]1O[C@H](C(=O)OC)[C@@H](O)[C@H](O)[C@@H]1O)C(C)/C=C(\C)C(O)C(C)/C=C(\C)C(O)C(C)/C=C(\C)[C@H](O)[C@@H](C)C(=O)OC[C@H](O)[C@@H](O)[C@@H](O)CO (some centres not stated) [CLADIONOL A]
KB
  IC50: 7 µg/mL (≈ 8.11 µM)
L1210
  IC50: 5 µg/mL (≈ 5.79 µM)
